Reference: ChEMBL document CHEMBL2203276, “Design, synthesis and evaluation of novel zwitterionic compounds as PPARα/γ dual agonists (1)” (Bioorg Med Chem Lett, 2012)
pEC50: −log10 of the molar value.

Tests used:
[1] = biological target: T1, Peroxisome proliferator-activated receptor gamma (Homo sapiens, UniProt P37231); type: functional, cell-based
T1 sequence (P37231 whole entry): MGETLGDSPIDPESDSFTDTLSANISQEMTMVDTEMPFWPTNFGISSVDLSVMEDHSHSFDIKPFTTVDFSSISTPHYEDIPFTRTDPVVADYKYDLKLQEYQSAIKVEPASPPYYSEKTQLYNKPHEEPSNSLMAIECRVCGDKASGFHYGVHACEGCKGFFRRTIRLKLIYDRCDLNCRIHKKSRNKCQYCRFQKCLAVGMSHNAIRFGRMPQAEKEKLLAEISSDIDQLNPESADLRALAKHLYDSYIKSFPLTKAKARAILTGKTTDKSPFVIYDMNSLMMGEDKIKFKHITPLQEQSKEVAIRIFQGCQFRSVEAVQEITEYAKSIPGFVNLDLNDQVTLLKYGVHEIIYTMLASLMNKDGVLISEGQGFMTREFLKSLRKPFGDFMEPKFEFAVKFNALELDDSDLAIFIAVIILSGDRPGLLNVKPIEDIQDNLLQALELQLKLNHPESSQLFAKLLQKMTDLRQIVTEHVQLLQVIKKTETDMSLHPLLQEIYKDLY
Description: Agonist activity at GAL4-fused PPARgamma assessed as transcriptional activity by cell based assay

[2] = biological target: T2, Peroxisome proliferator-activated receptor alpha (Homo sapiens, UniProt Q07869); assay: Agonist activity at GAL4-fused PPARalpha assessed as transcriptional activity by cell based assay; type: functional
T2 sequence (Q07869 whole entry): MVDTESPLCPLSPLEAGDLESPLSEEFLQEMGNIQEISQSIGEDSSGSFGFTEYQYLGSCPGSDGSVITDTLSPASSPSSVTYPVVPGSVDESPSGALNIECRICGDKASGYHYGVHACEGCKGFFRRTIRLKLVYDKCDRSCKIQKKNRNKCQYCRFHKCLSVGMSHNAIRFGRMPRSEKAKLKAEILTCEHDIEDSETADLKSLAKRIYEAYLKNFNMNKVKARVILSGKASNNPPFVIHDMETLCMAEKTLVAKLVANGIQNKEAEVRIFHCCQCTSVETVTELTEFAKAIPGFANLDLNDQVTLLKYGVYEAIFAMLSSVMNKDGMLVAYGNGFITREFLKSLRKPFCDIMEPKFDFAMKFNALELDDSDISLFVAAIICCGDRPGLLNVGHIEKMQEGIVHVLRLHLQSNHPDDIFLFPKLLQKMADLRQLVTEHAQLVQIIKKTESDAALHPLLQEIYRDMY

Mus musculus [3] = assay: Toxicity in db/db mouse type 2 diabetic model assessed as reduction of body weight at 10 mg/kg, po administered for 14 days; type: organism-based; design: dose 10 mg/kg, route oral; scale not given: the % may be the effect or the level left; conditions: in vivo, 336 h
Mus musculus [4] = assay: Antidiabetic activity in db/db mouse type 2 diabetic model assessed as reduction of plasma triglyceride level at 10 mg/kg, po administered for 14 days; type: functional; design: scale not given: the % may be the effect or the level left
Mus musculus [5] = assay: Antidiabetic activity in db/db mouse type 2 diabetic model assessed as reduction of plasma glucose level at 10 mg/kg, po administered for 14 days; type: functional; design: scale not given: the % may be the effect or the level left
Mus musculus [6] = assay: Toxicity in db/db mouse type 2 diabetic model assessed as reduction of body weight at 30 mg/kg, po administered for 14 days; type: organism-based; design: dose 30 mg/kg, route oral; scale not given: the % may be the effect or the level left; conditions: in vivo, 336 h
Mus musculus [7] = assay: Antidiabetic activity in db/db mouse type 2 diabetic model assessed as reduction of plasma triglyceride level at 30 mg/kg, po administered for 14 days; type: functional; design: scale not given: the % may be the effect or the level left
Mus musculus [8] = assay: Antidiabetic activity in db/db mouse type 2 diabetic model assessed as reduction of plasma glucose level at 30 mg/kg, po administered for 14 days; type: functional; design: scale not given: the % may be the effect or the level left

| pEC50 [1] | pEC50 [2] | Structure (SMILES) | also measured |
| --- | --- | --- | --- |
| 6.05 | 7.44 | Cc1oc(-c2ccccc2)nc1CN(Cc1ccco1)Cc1ccc(OC(C)(C)C(=O)O)cc1Cl |  |
| 6.48 | 7.49 | COc1cc(OC(C)(C)C(=O)O)ccc1CN(Cc1ccco1)Cc1nc(-c2ccccc2)oc1C |  |
| 8.33 | 8.77 | Cc1cc(CN(Cc2ccco2)Cc2nc(-c3ccccc3)oc2C)cc(C)c1OC(C)(C)C(=O)O | Activity (Mus musculus [3]): -7.6%; Activity (Mus musculus [4]): 88%; Activity (Mus musculus [5]): 74% |
| 6.74 | 8.05 | COc1cc(CN(Cc2ccco2)Cc2nc(-c3ccccc3)oc2C)ccc1OC(C)(C)C(=O)O |  |
| 7.38 | 8.41 | Cc1cc(CN(Cc2ccco2)Cc2nc(-c3ccccc3)oc2C)ccc1OC(C)(C)C(=O)O |  |
| 7.15 | 8.29 | Cc1oc(-c2ccccc2)nc1CN(Cc1ccc(OC(C)(C)C(=O)O)c(Cl)c1)Cc1ccco1 |  |
| 6.17 | 7.89 | Cc1oc(-c2ccccc2)nc1CN(Cc1ccc(OC(C)(C)C(=O)O)cc1)Cc1ccco1 |  |
| 6.51 | 8.09 | Cc1oc(-c2cccc(Br)c2)nc1CN(Cc1ccc(OC(C)(C)C(=O)O)cc1)Cc1ccco1 |  |
| < 4.60 | < 4.60 | Cc1oc(-c2cccc(Br)c2)nc1CN(Cc1ccc(OC(C)(C)C(=O)O)cc1)C(=O)c1ccccc1 |  |
| 6.15 | 7.59 | COc1ccc(CN(Cc2ccc(OC(C)(C)C(=O)O)cc2)Cc2nc(-c3cccc(Br)c3)oc2C)cc1 |  |
| 5.89 | 6.30 | CCCCN(Cc1ccc(OC(C)(C)C(=O)O)cc1)Cc1nc(-c2cccc(Br)c2)oc1C |  |
| 5.66 | 7.25 | Cc1oc(-c2cccc(Br)c2)nc1CN(Cc1ccccc1)Cc1ccc(OC(C)(C)C(=O)O)cc1 |  |
| 5.11 | 6.17 | Cc1oc(-c2cccc(Br)c2)nc1CNCc1ccc(OC(C)(C)C(=O)O)cc1 |  |
| < 4.60 | < 4.60 | Cc1oc(-c2ccccc2)nc1CC(=O)Nc1ccc(OC(C)(C)C(=O)O)cc1 |  |
| < 4.60 | 5.00 | Cc1oc(-c2ccccc2)nc1CNCc1ccc(OC(C)(C)C(=O)O)cc1 |  |
| 5.06 | 5.14 | Cc1oc(-c2ccccc2)nc1CNc1ccc(OC(C)(C)C(=O)O)cc1 |  |
| 4.80 | 5.28 | Cc1oc(-c2ccccc2)nc1CCNc1ccc(OC(C)(C)C(=O)O)cc1 |  |
| 6.10 | 7.09 | Cc1oc(-c2cccc(Br)c2)nc1CCOc1ccc(OC(C)(C)C(=O)O)cc1 |  |
| < 4.60 | 6.30 | Cc1oc(-c2ccccc2)nc1CCOc1ccc(OC(C)(C)C(=O)O)cc1 | Activity (Mus musculus [6]): 8.4%; Activity (Mus musculus [7]): 56%; Activity (Mus musculus [8]): 25% |
|  |  | CN(CCOc1ccc(CC2SC(=O)NC2=O)cc1)c1ccccn1 (stereo not drawn) [ROSIGLITAZONE] | Activity (Mus musculus [3]): 10.1%; Activity (Mus musculus [4]): 58%; Activity (Mus musculus [5]): 54% |

| Structure (SMILES) | pEC50 [1] | pEC50 [2] | also measured |
| --- | --- | --- | --- |
| COc1ccc(OC(=O)N(CC(=O)O)Cc2ccc(OCCc3nc(-c4ccccc4)oc3C)cc2)cc1 [MURAGLITAZAR] |  | 6.52 |  |
